The results in this text go back to patent US20240400571A1, “5,6 UNSATURATED BICYCLIC HETEROCYLES USEFUL AS INHIBITORS OF NOD-LIKE RECEPTOR PROTEIN 3” (Merck Sharp & Dohme LLC, priority 2023, published 2024).

For orientation: EC50 means the concentration that produces a half-maximal response.

For the experiment, the target named is T1, NLRP3 inflammasome (Homo sapiens, UniProt Q96P20).
T1 construct: host or cells: THP-1 human monocytic cells, treated with PMA and stimulated with gramicidin
The experiment is described as follows: ASC-SPECK formation in THP-1 cells after gramicidin stimulation (NLRP3 inflammasome activation). In kind it is cell-based. As to conditions: PMA-treated human monocytic THP-1 cells; compound 1 h before 12.5 μg/ml gramicidin, 3-hour treatment; ASC SPECK imaging; read-out: EC50 values (nM) for Examples that inhibit NLRP3 inflammasome activation. The protocol: The ability of compounds to inhibit NLRP3 inflammasome activation was determined in vitro by monitoring formation of the ASC-SPECK in human monocytic THP-1 cells after stimulation. THP-1 cells (ATCC catalog #TIB-202) were maintained in complete growth media containing Roswell Park Memorial Institute RPMI (ATCC catalog #30-2001), 10% heat inactivated fetal bovine serum, 1× penicillin/streptomycin and 0.05 mM 2-mercaptoethanol. At the start of the assay, undifferentiated THP-1 cells were plated at a density of 20,000 cells per well in a 384-well plate (Poly-D-lysine coated Cell Carrier Ultra microplate, Perkin Elmer catalog #6057500) in complete growth media supplemented with 10 ng/ml phorbol 12-myristate 13-acetate (PMA; Sigma catalog #P8139), and then incubated overnight. The next day, media was replaced with assay media [RPMI (Gibco catalog #11875-093), 0.01% bovine serum albumin (BSA)]. Compounds were serially diluted in DMSO and then added to wells one hour prior to the addition of 12.5 μg/ml Gramicidin (Enzo Lifescience, catalog #ALX-350-233-M005). All incubations were carried out at 37° C. (5% CO2/95% air). Following a 3-hour treatment with gramicidin, cells are fixed with 4% paraformaldehyde and stored at 4° C. until immunofluorescence staining.
Immunofluorescence staining: Anti-ASC antibody (MBL catalog #D086-3) was desalted and labeled with Alexa 488 antibody labeling kit (Thermo catalog #A20181) prior to use as described below. After fixation, the following steps were carried out at room temperature. Cells were first permeabilized with 0.3% Triton X-100 in phosphate-buffered saline (PBS) for 15 minutes and then incubated in blocking buffer containing 5% goat serum, 0.3% tween-20 and 0.03% sodium azide in PBS for 1 hour. Cells were stained with a mixture of ASC-Alexa 488 antibody (diluted 1:200 in blocking buffer) and nuclear stain DRAQ5 (1:5000 in blocking buffer, Thermo catalog #62251) in blocking buffer for 1 hour. Following a wash with 0.3% Tween-20 in PBS, plates were imaged with an Opera Phenix High Content Screening System. The number of DRAQ5 positive cells containing ASC SPECKS were quantified in each well.
Data analysis: EC50 values were calculated by standard curve-fitting analysis using an internally developed program in TIBCO Spotfire software.

T1 sequence (Q96P20 whole entry): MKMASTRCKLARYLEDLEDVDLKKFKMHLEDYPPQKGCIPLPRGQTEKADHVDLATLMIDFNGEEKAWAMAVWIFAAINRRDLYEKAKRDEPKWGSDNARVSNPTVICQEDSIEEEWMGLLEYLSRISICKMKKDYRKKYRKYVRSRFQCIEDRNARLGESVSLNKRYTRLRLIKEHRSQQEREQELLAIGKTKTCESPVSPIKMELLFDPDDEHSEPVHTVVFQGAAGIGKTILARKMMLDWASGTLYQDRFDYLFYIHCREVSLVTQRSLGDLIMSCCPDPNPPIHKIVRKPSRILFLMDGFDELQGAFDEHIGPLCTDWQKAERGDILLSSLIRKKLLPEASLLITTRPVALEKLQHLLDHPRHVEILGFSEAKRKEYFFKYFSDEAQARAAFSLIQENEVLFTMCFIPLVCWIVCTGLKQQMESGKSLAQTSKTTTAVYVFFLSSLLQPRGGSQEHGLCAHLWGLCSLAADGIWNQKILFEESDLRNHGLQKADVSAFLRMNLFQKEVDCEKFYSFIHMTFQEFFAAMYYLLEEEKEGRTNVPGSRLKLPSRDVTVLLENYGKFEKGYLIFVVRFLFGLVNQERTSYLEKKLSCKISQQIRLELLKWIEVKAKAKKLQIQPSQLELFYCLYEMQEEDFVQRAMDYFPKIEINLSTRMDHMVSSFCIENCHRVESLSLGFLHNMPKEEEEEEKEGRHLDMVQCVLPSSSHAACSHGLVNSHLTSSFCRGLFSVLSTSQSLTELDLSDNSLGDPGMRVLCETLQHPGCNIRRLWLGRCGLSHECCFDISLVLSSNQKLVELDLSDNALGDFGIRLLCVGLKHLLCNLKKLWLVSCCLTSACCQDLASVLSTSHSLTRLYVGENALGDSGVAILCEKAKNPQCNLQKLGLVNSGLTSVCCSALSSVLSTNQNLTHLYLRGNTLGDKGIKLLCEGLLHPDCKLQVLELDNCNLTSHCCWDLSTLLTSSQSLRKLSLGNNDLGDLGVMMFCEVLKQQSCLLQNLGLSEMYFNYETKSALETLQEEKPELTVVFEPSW

As for `Cc1c(-c2ccc(C(F)(F)F)cc2O)nnc2c1ncn2[C@@H]1CCCN(C2CCC2)C1` [Example 23, (R)-2-(7-(1-cyclobutylpiperidin-3-yl)-4-methyl-7H-imidazo[4,5-c]pyridazin-3-yl)-5-(trifluoromethyl)phenol], the EC50 stood at 112 nM.

Consider `CCN1[C@H]2CC[C@@H]1[C@H](n1cnc3c(C)c(-c4ccc(C(F)(F)F)cc4O)nnc31)CC2` (single isomer, unassigned) [Example 30], for which the EC50 was 9 nM.

As for `Cc1ccc(-c2nnc3c(ncn3[C@@H]3CCCN(C)C3)c2C)c(O)c1F` [Example 20, (R)-2-fluoro-3-methyl-6-(4-methyl-7-(1-methylpiperidin-3-yl)-7H-imidazo[4,5-c]pyridazin-3-yl)phenol], the 50% effective concentration (EC50) came out at 84 nM.
